Legend:
DNA polymerase lambda = molecular target: T1, DNA polymerase lambda (Homo sapiens, UniProt Q9UGP5); test: Inhibition of human recombinant His-tagged DNA polymerase lambda expressed in Escherichia coli assessed as inhibition of incorporation of dTTP into poly(dA)/oligo(dT)18 after 60 mins
T1 sequence (Q9UGP5 whole entry): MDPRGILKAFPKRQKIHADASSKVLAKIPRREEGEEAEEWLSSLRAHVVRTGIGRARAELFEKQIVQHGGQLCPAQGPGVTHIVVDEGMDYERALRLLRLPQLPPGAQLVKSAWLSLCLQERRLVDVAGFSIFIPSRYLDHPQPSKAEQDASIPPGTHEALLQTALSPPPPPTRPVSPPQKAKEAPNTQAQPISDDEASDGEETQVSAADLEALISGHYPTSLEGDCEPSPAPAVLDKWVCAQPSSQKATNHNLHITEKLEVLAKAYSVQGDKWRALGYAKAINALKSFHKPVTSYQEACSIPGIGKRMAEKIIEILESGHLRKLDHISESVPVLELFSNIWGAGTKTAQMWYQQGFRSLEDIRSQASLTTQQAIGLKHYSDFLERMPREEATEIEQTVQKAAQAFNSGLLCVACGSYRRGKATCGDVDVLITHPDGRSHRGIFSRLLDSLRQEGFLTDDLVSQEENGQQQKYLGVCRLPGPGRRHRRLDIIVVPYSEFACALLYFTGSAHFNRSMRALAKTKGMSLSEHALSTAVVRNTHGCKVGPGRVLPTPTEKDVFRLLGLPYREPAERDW

[1] = molecular target: T2, DNA polymerase delta catalytic subunit (Homo sapiens, UniProt P28340); test: Inhibition of DNA polymerase delta isolated from human MOLT4 cells assessed as inhibition of incorporation of dTTP into poly(dA)/oligo(dT)18 after 60 mins; format: cell-free, MOLT-4
T2 sequence (P28340 whole entry): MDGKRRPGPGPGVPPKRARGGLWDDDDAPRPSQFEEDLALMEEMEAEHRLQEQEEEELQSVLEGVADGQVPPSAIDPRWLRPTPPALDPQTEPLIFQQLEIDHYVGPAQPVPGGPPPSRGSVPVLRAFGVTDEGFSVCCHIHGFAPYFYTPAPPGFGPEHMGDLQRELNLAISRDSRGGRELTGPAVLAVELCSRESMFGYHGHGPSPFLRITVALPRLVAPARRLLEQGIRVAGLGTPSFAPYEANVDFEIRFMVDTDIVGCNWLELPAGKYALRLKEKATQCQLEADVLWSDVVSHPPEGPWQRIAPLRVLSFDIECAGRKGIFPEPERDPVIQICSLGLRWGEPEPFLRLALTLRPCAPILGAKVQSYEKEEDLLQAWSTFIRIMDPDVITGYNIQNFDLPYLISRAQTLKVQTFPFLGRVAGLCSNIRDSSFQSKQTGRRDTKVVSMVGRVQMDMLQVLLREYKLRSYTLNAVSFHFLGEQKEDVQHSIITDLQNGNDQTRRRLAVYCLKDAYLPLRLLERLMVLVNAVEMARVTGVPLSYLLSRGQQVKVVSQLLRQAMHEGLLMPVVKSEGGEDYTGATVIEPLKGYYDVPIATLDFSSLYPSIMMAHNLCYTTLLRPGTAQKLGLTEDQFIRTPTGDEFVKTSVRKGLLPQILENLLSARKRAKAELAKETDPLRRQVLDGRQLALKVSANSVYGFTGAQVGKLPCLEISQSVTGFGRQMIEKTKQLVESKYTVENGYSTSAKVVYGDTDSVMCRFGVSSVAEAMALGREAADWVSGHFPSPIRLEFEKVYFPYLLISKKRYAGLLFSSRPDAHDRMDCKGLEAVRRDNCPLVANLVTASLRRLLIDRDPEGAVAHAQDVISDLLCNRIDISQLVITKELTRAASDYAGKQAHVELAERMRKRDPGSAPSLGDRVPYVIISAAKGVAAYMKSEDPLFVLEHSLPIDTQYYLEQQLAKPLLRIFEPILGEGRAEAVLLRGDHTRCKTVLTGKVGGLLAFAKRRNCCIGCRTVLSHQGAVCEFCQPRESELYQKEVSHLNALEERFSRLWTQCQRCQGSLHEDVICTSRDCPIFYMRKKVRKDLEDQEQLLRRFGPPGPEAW

Deoxyribonuclease-1 = Deoxyribonuclease-1 (Bos taurus, UniProt P00639); test: Inhibition of bovine deoxyribonuclease 1 assessed as inhibition of incorporation of dTTP into poly(dA)/oligo(dT)18 after 60 mins
[2] = Inhibition of DNA polymerase epsilon isolated from human MOLT4 cells assessed as inhibition of incorporation of dTTP into poly(dA)/oligo(dT)18 after 60 mins; format: cell-free; settings: molt-4
[3] = molecular target: T3, DNA polymerase delta catalytic subunit (Drosophila melanogaster, UniProt P54358); test: Inhibition of fruit fly DNA polymerase delta assessed as inhibition of incorporation of dTTP into poly(dA)/oligo(dT)18 after 60 mins
T3 sequence (P54358 whole entry): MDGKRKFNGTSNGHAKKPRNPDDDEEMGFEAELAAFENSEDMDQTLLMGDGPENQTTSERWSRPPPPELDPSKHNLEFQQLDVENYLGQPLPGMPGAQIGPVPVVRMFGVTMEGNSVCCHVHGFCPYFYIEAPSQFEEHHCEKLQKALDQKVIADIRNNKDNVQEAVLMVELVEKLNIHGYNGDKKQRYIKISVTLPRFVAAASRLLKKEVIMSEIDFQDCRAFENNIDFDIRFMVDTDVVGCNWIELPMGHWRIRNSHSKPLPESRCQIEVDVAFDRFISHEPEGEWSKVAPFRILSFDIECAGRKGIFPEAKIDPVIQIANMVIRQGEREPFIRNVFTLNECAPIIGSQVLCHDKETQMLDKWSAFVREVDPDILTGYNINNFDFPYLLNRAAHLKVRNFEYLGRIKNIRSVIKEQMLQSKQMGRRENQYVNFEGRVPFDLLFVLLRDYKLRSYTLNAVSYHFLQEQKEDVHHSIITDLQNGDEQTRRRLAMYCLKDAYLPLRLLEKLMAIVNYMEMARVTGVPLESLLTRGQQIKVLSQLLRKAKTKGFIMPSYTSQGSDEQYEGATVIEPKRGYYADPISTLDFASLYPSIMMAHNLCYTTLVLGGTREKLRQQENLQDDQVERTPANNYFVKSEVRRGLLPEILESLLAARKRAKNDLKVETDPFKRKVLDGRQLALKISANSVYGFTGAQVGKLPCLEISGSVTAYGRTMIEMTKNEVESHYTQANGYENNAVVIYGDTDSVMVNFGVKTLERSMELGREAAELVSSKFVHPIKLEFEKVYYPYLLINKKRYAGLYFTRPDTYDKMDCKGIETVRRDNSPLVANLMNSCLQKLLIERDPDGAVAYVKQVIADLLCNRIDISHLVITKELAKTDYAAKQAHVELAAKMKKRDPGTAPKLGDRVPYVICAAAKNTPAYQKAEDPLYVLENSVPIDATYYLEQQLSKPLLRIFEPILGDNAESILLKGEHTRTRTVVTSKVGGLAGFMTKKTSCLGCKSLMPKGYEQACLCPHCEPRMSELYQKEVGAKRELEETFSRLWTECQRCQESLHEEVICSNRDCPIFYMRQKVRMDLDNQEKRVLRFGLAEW

Measured: IC50

Chain of Deoxyribonuclease-1 (P00639 whole entry): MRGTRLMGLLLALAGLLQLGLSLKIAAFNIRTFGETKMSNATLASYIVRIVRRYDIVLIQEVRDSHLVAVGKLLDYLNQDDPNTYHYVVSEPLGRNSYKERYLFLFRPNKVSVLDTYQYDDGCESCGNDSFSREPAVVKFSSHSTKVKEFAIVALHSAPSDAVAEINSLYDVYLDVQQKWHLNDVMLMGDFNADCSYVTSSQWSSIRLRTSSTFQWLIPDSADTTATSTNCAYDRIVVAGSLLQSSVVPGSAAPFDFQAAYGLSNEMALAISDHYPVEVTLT

CCCC[C@@H](O)/C=C(C)/C=C/C=C\C(=O)N1CCCC1=O
> 200 µM: DNA polymerase lambda | [1] | Deoxyribonuclease-1 | [2] | [3]

CCCC[C@@H](O)/C=C(C)/C=C/C=C/C(=O)N1CCCC1=O [PECILOCIN]
> 200 µM: DNA polymerase lambda | [1] | Deoxyribonuclease-1 | [2] | [3]

CC(/C=C/CCC(=O)N1CCCC1=O)=C\C1CCCCO1 (stereo not given)
> 200 µM: DNA polymerase lambda | [1] | Deoxyribonuclease-1 | [2] | [3]

CCCCC(=O)/C=C(C)/C=C/CCC(=O)N1CCCC1=O
> 200 µM: DNA polymerase lambda | [1] | Deoxyribonuclease-1 | [2] | [3]
